Experimental data taken from the supplement of paper PMC10307832.

Columns and labels:
Test in all cases: relative viability (nuclei count vs DMSO), 5 days (fraction); higher = more cells survive
[1] = tested on: A-427
Outline: (§1)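 For relative viability, nuclei counts in treated wells were divided by those in vehicle wells. Lung cancer cell lines had been pin-tool dosed in 1536-well plates the day after seeding and cultured for 5 days, then fixed and stained in one step (final 0.05% Triton X-100, 1% formaldehyde, 1 ug/ml Hoechst) and imaged at 4×. Doses were one drug alone or a fixed anchor-drug dose plus five library-drug doses (not always all listed) in √10 steps, and values are duplicate-plate medians.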

[2] = tested on: ABC-1
Outline: as §1

[3] = tested on: EMC-BAC-2
Outline: as §1

[4] = tested on: HARA
Outline: as §1

[5] = tested on: HOP-62
Outline: as §1

[6] = tested on: LK-2
Outline: as §1

[7] = tested on: LXF-289
Outline: as §1

[8] = tested on: NCI-H1944
Outline: as §1

[9] = tested on: NCI-H1993
Outline: as §1

[10] = tested on: NCI-H2009
Outline: as §1

[11] = tested on: NCI-H2170
Outline: as §1

[12] = tested on: NCI-H2228
Outline: as §1

[13] = tested on: NCI-H3122
Outline: as §1

[14] = tested on: NCI-H322M
Outline: as §1

[15] = tested on: NCI-H522
Outline: as §1

[16] = tested on: NCI-H596
Outline: as §1

[17] = tested on: NCI-H727
Outline: as §1

[18] = tested on: PC-3 [JPC-3]
Outline: as §1

[19] = tested on: SK-MES-1
Outline: as §1

[20] = tested on: SW 1573
Outline: as §1

[21] = tested on: SW 900
Outline: as §1

## Cc1sc2c(c1C)C(c1ccc(Cl)cc1)=N[C@@H](CC(=O)OC(C)(C)C)c1nnc(C)n1-2 [JQ1] + Cc1cc(Nc2cc(N3CCN(C)CC3)nc(Sc3ccc(NC(=O)C4CC4)cc3)n2)n[nH]1 [Tozasertib] (partner 0.1 µM)
[1]; first compound 0.04 µM
  relative viability: 0.195
[1]; first compound 0.1265 µM
  relative viability: 0.188
[1]; first compound 0.4 µM
  relative viability: 0.173
[1]; first compound 1.265 µM
  relative viability: 0.131
[1]; first compound 4 µM
  relative viability: 0.125
[2]; first compound 0.04 µM
  relative viability: 0.187
[2]; first compound 0.1265 µM
  relative viability: 0.18
[2]; first compound 0.4 µM
  relative viability: 0.196
[2]; first compound 1.265 µM
  relative viability: 0.175
[2]; first compound 4 µM
  relative viability: 0.179
[3]; first compound 0.04 µM
  relative viability: 0.248
[3]; first compound 0.1265 µM
  relative viability: 0.235
[3]; first compound 0.4 µM
  relative viability: 0.221
[3]; first compound 1.265 µM
  relative viability: 0.174
[3]; first compound 4 µM
  relative viability: 0.174
[4]; first compound 0.04 µM
  relative viability: 0.112
[4]; first compound 0.1265 µM
  relative viability: 0.122
[4]; first compound 0.4 µM
  relative viability: 0.123
[4]; first compound 1.265 µM
  relative viability: 0.08
[4]; first compound 4 µM
  relative viability: 0.0561
[5]; first compound 0.04 µM
  relative viability: 0.361
[5]; first compound 0.1265 µM
  relative viability: 0.305
[5]; first compound 0.4 µM
  relative viability: 0.192
[5]; first compound 1.265 µM
  relative viability: 0.122
[5]; first compound 4 µM
  relative viability: 0.122
[6]; first compound 0.04 µM
  relative viability: 0.18
[6]; first compound 0.1265 µM
  relative viability: 0.192
[6]; first compound 0.4 µM
  relative viability: 0.195
[6]; first compound 1.265 µM
  relative viability: 0.151
[6]; first compound 4 µM
  relative viability: 0.166
[7]; first compound 0.04 µM
  relative viability: 0.171
[7]; first compound 0.1265 µM
  relative viability: 0.134
[7]; first compound 0.4 µM
  relative viability: 0.0871
[7]; first compound 1.265 µM
  relative viability: 0.0699
[7]; first compound 4 µM
  relative viability: 0.0528
[8]; first compound 0.04 µM
  relative viability: 0.231
[8]; first compound 0.1265 µM
  relative viability: 0.225
[8]; first compound 0.4 µM
  relative viability: 0.227
[8]; first compound 1.265 µM
  relative viability: 0.208
[8]; first compound 4 µM
  relative viability: 0.185
[9]; first compound 0.04 µM
  relative viability: 0.509
[9]; first compound 0.1265 µM
  relative viability: 0.62
[9]; first compound 0.4 µM
  relative viability: 0.513
[9]; first compound 1.265 µM
  relative viability: 0.424
[9]; first compound 4 µM
  relative viability: 0.489
[10]; first compound 0.04 µM
  relative viability: 0.697
[10]; first compound 0.1265 µM
  relative viability: 0.414
[10]; first compound 0.4 µM
  relative viability: 0.385
[10]; first compound 1.265 µM
  relative viability: 0.199
[10]; first compound 4 µM
  relative viability: 0.187
[11]; first compound 0.04 µM
  relative viability: 0.711
[11]; first compound 0.1265 µM
  relative viability: 0.64
[11]; first compound 0.4 µM
  relative viability: 0.467
[11]; first compound 1.265 µM
  relative viability: 0.352
[11]; first compound 4 µM
  relative viability: 0.194
[12]; first compound 0.04 µM
  relative viability: 0.286
[12]; first compound 0.1265 µM
  relative viability: 0.284
[12]; first compound 0.4 µM
  relative viability: 0.207
[12]; first compound 1.265 µM
  relative viability: 0.126
[12]; first compound 4 µM
  relative viability: 0.08
[13]; first compound 0.04 µM
  relative viability: 0.353
[13]; first compound 0.4 µM
  relative viability: 0.189
[13]; first compound 1.265 µM
  relative viability: 0.0696
[13]; first compound 4 µM
  relative viability: 0.0737
[14]; first compound 0.04 µM
  relative viability: 0.445
[14]; first compound 0.1265 µM
  relative viability: 0.443
[14]; first compound 0.4 µM
  relative viability: 0.427
[14]; first compound 1.265 µM
  relative viability: 0.362
[14]; first compound 4 µM
  relative viability: 0.375
[15]; first compound 0.04 µM
  relative viability: 0.598
[15]; first compound 0.1265 µM
  relative viability: 0.503
[15]; first compound 0.4 µM
  relative viability: 0.454
[15]; first compound 1.265 µM
  relative viability: 0.434
[15]; first compound 4 µM
  relative viability: 0.339
[16]; first compound 0.04 µM
  relative viability: 0.822
[16]; first compound 0.1265 µM
  relative viability: 0.643
[16]; first compound 0.4 µM
  relative viability: 0.72
[16]; first compound 1.265 µM
  relative viability: 0.237
[16]; first compound 4 µM
  relative viability: 0.225
[17]; first compound 0.04 µM
  relative viability: 0.714
[17]; first compound 0.1265 µM
  relative viability: 0.516
[17]; first compound 0.4 µM
  relative viability: 0.459
[17]; first compound 1.265 µM
  relative viability: 0.397
[17]; first compound 4 µM
  relative viability: 0.387
[18]; first compound 0.04 µM
  relative viability: 0.924
[18]; first compound 0.1265 µM
  relative viability: 0.935
[18]; first compound 0.4 µM
  relative viability: 0.588
[18]; first compound 1.265 µM
  relative viability: 0.502
[18]; first compound 4 µM
  relative viability: 0.296
[19]; first compound 0.04 µM
  relative viability: 0.929
[19]; first compound 0.1265 µM
  relative viability: 0.507
[19]; first compound 0.4 µM
  relative viability: 0.419
[19]; first compound 1.265 µM
  relative viability: 0.208
[19]; first compound 4 µM
  relative viability: 0.171
[20]; first compound 0.04 µM
  relative viability: 0.182
[20]; first compound 0.1265 µM
  relative viability: 0.137
[20]; first compound 0.4 µM
  relative viability: 0.181
[20]; first compound 1.265 µM
  relative viability: 0.141
[20]; first compound 4 µM
  relative viability: 0.16
[21]; first compound 0.04 µM
  relative viability: 0.647
[21]; first compound 0.1265 µM
  relative viability: 0.641
[21]; first compound 0.4 µM
  relative viability: 0.421
[21]; first compound 1.265 µM
  relative viability: 0.297
[21]; first compound 4 µM
  relative viability: 0.227
